Laboratory results from patent US20160237059A1, “HETEROCYCLIC SUBSTITUTED TRIFLUOROMETHYL PYRIMIDINONES AND THEIR USE” (BAYER PHARMA AKTIENGESELLSCHAFT, priority 2013, published 2016).

Tests used:
human CCR2 = molecular target: T1, human CCR2 (Homo sapiens, UniProt P41597); assay: Functional Ca2+ release test (B-1); type: cell-based; settings: Chem-1 cell line transfected with human CCR2; 50% inhibition of the MCP-1 effect, MCP-1 at EC50 (about 5 nM); in some cases means of several determinations
T1 construct: host or cells: Chem-1 cell line
T1 sequence (P41597 1-360 isoform P41597-2): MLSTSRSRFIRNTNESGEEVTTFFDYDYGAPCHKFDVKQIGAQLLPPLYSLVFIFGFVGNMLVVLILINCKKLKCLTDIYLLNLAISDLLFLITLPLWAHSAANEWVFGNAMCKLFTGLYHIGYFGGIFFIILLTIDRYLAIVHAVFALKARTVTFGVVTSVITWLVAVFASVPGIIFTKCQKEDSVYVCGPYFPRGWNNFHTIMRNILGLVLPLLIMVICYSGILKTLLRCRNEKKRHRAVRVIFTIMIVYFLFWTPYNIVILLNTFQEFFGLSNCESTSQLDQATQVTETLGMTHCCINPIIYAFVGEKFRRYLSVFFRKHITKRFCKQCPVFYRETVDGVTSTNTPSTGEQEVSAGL
Method: The antagonistic action of test substances on CCR2 was determined in a functional Ca^2+ release test. Binding of CCL2/MCP-1 to CCR2 leads to a change in the conformation of the receptor resulting in Gi/Gq protein activation and intracellular signal cascade. This involves, inter alia, an intracellular Ca^2+ release. The test cell used was a Chem-1 cell line transfected with human CCR2 (ChemiSCREEN™ CCR2B Calcium-Optimized FLIPR Cell Line, Merck Millipore).
(§1) The test substances were dissolved in dimethyl sulphoxide (DMSO) at a concentration of 10 mM and serially diluted with DMSO in steps of 1:3.16 for a 10-point dose/activity analysis. According to the desired test concentrations, the substances were pre-diluted in Tyrode with 2 mM CaCl2 and 0.05% BSA.
The cells, cultivated in DMEM high glucose [supplemented with 10% FCS, 1 mM pyruvate, 15 mM HEPES, 500 μg/ml geniticin and non-essential amino acids (NEAA)], were sown at 5000 cells/25 μl in 384 well, μCLEAR/black cell culture plates from Greiner (#781092) and incubated at 37° C. for 24 h. The sowing medium consisted of DMEM high glucose [supplemented with 5% FCS, 1 mM pyruvate, 15 mM HEPES, 50 U/ml penicillin, 50 μg/ml streptomycin and non-essential amino acids (NEAA)]. The medium was then removed and the cells were charged for 60 min at 37° C. with Fluo-4 dye [25 μl Tyrode with 3 μM Fluo-4 AM (1 mM DMSO stock solution), 0.4 mg/ml Brilliant Black, 2.5 mM probenicid, 0.03% Pluronic F-127]. The cells were pre-incubated for 10 min with 10 μl of the test substances diluted in buffer, and 20 μl of agonist solution (MCP-1 in Tyrode with 0.05% BSA) were then added. MCP-1 was employed at the concentration which corresponds to the EC50 which had been determined in a preliminary test (usually about 5 nM). Ca^2+ release was monitored over a period of 120 s in 1 s increments in a proprietary fluorescence imaging reader. The molar concentration of the test substance which caused 50% inhibition of the MCP-1 effect (IC50) was determined using a 4-parameter logistic function (Hill function).

murine CCR2 = molecular target: T2, murine CCR2 (Mus musculus, UniProt P51683); assay: Functional β-arrestin recruiting test with murine MCP-1 (B-2b); type: cell-based; settings: U2OS β-arrestin cell line transfected with murine CCR2; agonist murine MCP-1; in some cases means of several determinations
T2 construct: host or cells: U2OS β-arrestin cell line
Method: The antagonistic action of test substances on CCR2 was determined in a β-arrestin test. The PathHunter β-arrestin GPCR test system (DiscoveRx Corporation, Ltd.) is a cell-based functional method for detecting binding of β-arrestin to an activated receptor. The molecular basis is a […] complementation measured by the enzymatic conversion of a chemiluminescent substrate. The test cell used was a U2OS β-arrestin cell line transfected with murine CCR2 (93-0543C3, DiscoveRx Corporation, Ltd.).
as §1
The cells, cultivated in MEM Eagle (supplemented with 10% FCS, 50 U/ml of penicillin, 50 μg/ml of streptomycin, 250 μg/ml of hygromycin and 500 μg/ml of geniticin), were sown at 2000 cells/25 μl in 384 well, μCLEAR/black cell culture plates from Greiner (#781092) and incubated at 37° C. for 24 h. The sowing medium consisted of Opti-MEM (supplemented with 1% FCS, 50 U/ml of penicillin and 50 μg/ml of streptomycin). The cells were pre-incubated for 10 min with 10 μl of the test substances diluted in buffer, and 10 μl of agonist solution [human MCP-1 (PeproTech, #300-04) in Tyrode with 0.05% BSA) were then added. The human MCP-1 was employed at the concentration which corresponds to the EC50 which had been determined in a preliminary test (usually about 3 nM). After 90 min of incubation at 37° C., the solution was removed, and recruitment of β-arrestin to CCR2 was detected with the aid of the PathHunter detection reagent (93-001, DiscoveRx Corporation, Ltd.) according to the instructions of the manufacturer. Luminescence was measured after an incubation time of 60 min using a proprietary luminescence imaging measuring instrument. The molar concentration of the test substance which caused 50% inhibition of the MCP-1 effect (IC50) was determined using a 4-parameter logistic function (Hill function).
The test was carried out in a manner identical to that described above under B-2a, but using murine MCP-1 (PeproTech, #250-10) as agonist.

T2 sequence (P51683 whole entry): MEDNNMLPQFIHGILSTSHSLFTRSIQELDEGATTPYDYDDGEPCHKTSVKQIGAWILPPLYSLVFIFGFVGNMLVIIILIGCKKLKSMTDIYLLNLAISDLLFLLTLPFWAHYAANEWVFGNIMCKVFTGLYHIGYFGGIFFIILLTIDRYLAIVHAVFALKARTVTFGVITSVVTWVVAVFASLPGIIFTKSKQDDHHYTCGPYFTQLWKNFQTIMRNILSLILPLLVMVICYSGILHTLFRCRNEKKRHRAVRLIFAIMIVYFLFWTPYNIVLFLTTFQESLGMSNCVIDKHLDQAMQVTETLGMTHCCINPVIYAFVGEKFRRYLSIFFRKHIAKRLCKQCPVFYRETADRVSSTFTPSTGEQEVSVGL

| SMILES | IC50 (human CCR2) [nM] | IC50 (murine CCR2) [nM] |
| --- | --- | --- |
| CC(C)Oc1ccc(-c2nc(C(F)(F)F)c(Oc3ccc(Cl)c(Cl)c3)c(=O)[nH]2)cn1 [Example 163, 5-(3,4-dichlorophenoxy)-2-(6-isopropoxypyridin-3-yl)-6-(trifluoromethyl)pyrimidin-4(3H)-one] | 129 | 7680 |
| COCc1cc(-c2nc(C(F)(F)F)c(Oc3ccc(Cl)c(Cl)c3)c(=O)[nH]2)no1 [Example 222] | 6.5 | 551 |
| Cn1nc(-c2nc(C(F)(F)F)c(Oc3ccc(Cl)c(C(F)(F)F)c3)c(=O)[nH]2)c2cccnc21 [Example 206] | 12 | 1990 |
| O=c1[nH]c(-c2ncccc2-c2ccccc2)nc(C(F)(F)F)c1Oc1ccc(Cl)c(C(F)(F)F)c1 [Example 188, 5-[4-chloro-3-(trifluoromethyl)phenoxy]-2-(3-phenylpyridin-2-yl)-6-(trifluoromethyl)pyrimidin-4(3H)-one] | 1.5 | 828 |
| CNc1ccnc(-c2nc(C(F)(F)F)c(Oc3ccc(Cl)c(C(F)(F)F)c3)c(=O)[nH]2)c1 [Example 169, 5-[4-chloro-3-(trifluoromethyl)phenoxy]-2-[4-(methylamino)pyridin-2-yl]-6-(trifluoromethyl)pyrimidin-4(3H)-one] | 36 | 624 |
| CCCc1cc(-c2nc(C(F)(F)F)c(Oc3ccc(Cl)c(C(F)(F)F)c3)c(=O)[nH]2)no1 [Example 216] | 4.6 | 1320 |
| Nc1ncc(-c2nc(C(F)(F)F)c(Oc3ccc(Cl)c(C(F)(F)F)c3)c(=O)[nH]2)cn1 [Example 155, 2′-amino-5-[4-chloro-3-(trifluoromethyl)phenoxy]-6-(trifluoromethyl)-2,5′-bipyrimidin-4(3H)-one] | 23 | 1080 |
| CN(C)c1cccc(-c2nc(C(F)(F)F)c(Oc3ccc(Cl)c(C(F)(F)F)c3)c(=O)[nH]2)n1 [Example 135, 5-[4-chloro-3-(trifluoromethyl)phenoxy]-2-[6-(dimethylamino)pyridin-2-yl]-6-(trifluoromethyl)pyrimidin-4(3H)-one] | 14 | 1570 |
| O=c1[nH]c(-c2cc(C3CC3)on2)nc(C(F)(F)F)c1Oc1ccc(Cl)c(Cl)c1 [Example 219] | 7.2 | 1040 |
| O=c1[nH]c(-c2ccncc2Cl)nc(C(F)(F)F)c1Oc1ccc(Cl)c(C(F)(F)F)c1 [Example 131, 2-(3-chloropyridin-4-yl)-5-[4-chloro-3-(trifluoromethyl)phenoxy]-6-(trifluoromethyl)pyrimidin-4(3H)-one] | 2.8 | 158 |
| O=c1[nH]c(-c2ccncc2Cl)nc(C(F)(F)F)c1Oc1ccc(Cl)c(Cl)c1 [Example 124, 2-(3-chloropyridin-4-yl)-5-(3,4-dichlorophenoxy)-6-(trifluoromethyl)pyrimidin-4(3H)-one] | 2.9 | 320 |
| CC(C)(C)Oc1cccc(-c2nc(C(F)(F)F)c(Oc3ccc(Cl)c(C(F)(F)F)c3)c(=O)[nH]2)n1 [Example 151, 2-(6-tert-butoxypyridin-2-yl)-5-[4-chloro-3-(trifluoromethyl)phenoxy]-6-(trifluoromethyl)pyrimidin-4(3H)-one] | 96 | 3680 |
| Cc1cnc(-c2nc(C(F)(F)F)c(Oc3ccc(Cl)c(Cl)c3)c(=O)[nH]2)cc1C [Example 212] | 2.6 | 1700 |
| Nc1ccnc(-c2nc(C(F)(F)F)c(Oc3ccc(Cl)c(Cl)c3)c(=O)[nH]2)c1 [Example 128, 2-(4-aminopyridin-2-yl)-5-(3,4-dichlorophenoxy)-6-(trifluoromethyl)pyrimidin-4(3H)-one] | 3.2 | 360 |
| O=c1[nH]c(-c2ncccc2OC(F)(F)F)nc(C(F)(F)F)c1Oc1ccc(Cl)c(Cl)c1 [Example 203] | 15 | 423 |
| COc1c[nH]nc1-c1nc(C(F)(F)F)c(Oc2ccc(Cl)c(Cl)c2)c(=O)[nH]1 [Example 213] | 0.6 | 49 |
| Cn1nc(-c2nc(C(F)(F)F)c(Oc3ccc(Cl)c(Cl)c3)c(=O)[nH]2)c2c(Cl)cccc21 [Example 141, 2-(4-chloro-1-methyl-1H-indazol-3-yl)-5-(3,4-dichlorophenoxy)-6-(trifluoromethyl)pyrimidin-4(3H)-one] | 5.1 | 274 |
| O=c1[nH]c(-c2ncccc2C(F)(F)F)nc(C(F)(F)F)c1Oc1ccc(Cl)c(Cl)c1 [Example 185, 5-(3,4-dichlorophenoxy)-6-(trifluoromethyl)-2-[3-(trifluoromethyl)pyridin-2-yl]pyrimidin-4(3H)-one] | 27 | 405 |
| CN(C)c1ccc(-c2nc(C(F)(F)F)c(Oc3ccc(Cl)c(C(F)(F)F)c3)c(=O)[nH]2)nc1 [Example 134, 5-[4-chloro-3-(trifluoromethyl)phenoxy]-2-[5-(dimethylamino)pyridin-2-yl]-6-(trifluoromethyl)pyrimidin-4(3H)-one] | 2.1 | 51 |

Results, then the compound that gave them:

| IC50 (human CCR2) [nM] | IC50 (murine CCR2) [nM] | SMILES |
| --- | --- | --- |
| 5.3 | 227 | O=c1[nH]c(-c2nsc(Cl)c2Cl)nc(C(F)(F)F)c1Oc1ccc(Cl)c(C(F)(F)F)c1 [Example 228] |
| 0.5 | 44 | O=c1[nH]c(-c2ccon2)nc(C(F)(F)F)c1Oc1ccc(Cl)c(Cl)c1 [Example 229] |
| 0.1 | 249 | Cc1cc(-c2nc(C(F)(F)F)c(Oc3ccc(Cl)c(Cl)c3)c(=O)[nH]2)no1 [Example 231] |
| 15 | 613 | COc1nc(N)n(-c2nc(C(F)(F)F)c(Oc3ccc(Cl)c(Cl)c3)c(=O)[nH]2)n1 [Example 254] |
| 692 | 720 | COc1nn(C)cc1-c1nc(C(F)(F)F)c(Oc2ccc(Cl)c(Cl)c2)c(=O)[nH]1 [Example 236] |
| 0.2 | 43 | O=c1[nH]c(-c2ccsn2)nc(C(F)(F)F)c1Oc1ccc(Cl)c(Cl)c1 [Example 233] |
| 113 | 6940 | O=c1[nH]c(-n2ccc(C(F)(F)F)n2)nc(C(F)(F)F)c1Oc1ccc(Cl)c(Cl)c1 [Example 252] |
| 0.4 | 53 | COc1cn(C)nc1-c1nc(C(F)(F)F)c(Oc2ccc(Cl)c(C(F)(F)F)c2)c(=O)[nH]1 [Example 264, 5-[4-Chloro-3-(trifluoromethyl)phenoxy]-2-(4-methoxy-1-methyl-1H-pyrazol-3-yl)-6-(trifluoromethyl)pyrimidin-4(3H)-one] |
| 0.1 | 21 | Cc1cc(Oc2c(C(F)(F)F)nc(-c3cc[nH]n3)[nH]c2=O)ccc1Cl [Example 223] |
